In patent US10370366B2 (Flatley Discovery Lab, LLC, priority 2013, dated 2019):

Target: T1, human F508del CFTR (Homo sapiens, UniProt P13569, DEL508-508)
T1 construct: expressed in transfected cells; host or cells: Fisher Rat Thyroid (FRT) cells
Test: CFTR-YFP High Throughput Assay
Type: cell-based
Details: FRT cells expressing human F508del CFTR and YFP; for Emax: EMax normalized to the positive control, read-out: % Efficacy
Method in brief: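 FRT cells stably co-expressing human F508del CFTR and halide-sensitive YFP-H148Q/I152L; for correction, compound (2 nM-40 μM) incubated 24-26 h at 37° C, washed, then stimulated 60-120 min at RT with 20 μM forskolin plus 30 μM potentiator P3. Iodide-induced YFP quench (Ex 500/Em 540 nm) recorded; quench rates least-squares fitted.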

T1 sequence (P13569 with tags, fused parts or gaps DEL508-508): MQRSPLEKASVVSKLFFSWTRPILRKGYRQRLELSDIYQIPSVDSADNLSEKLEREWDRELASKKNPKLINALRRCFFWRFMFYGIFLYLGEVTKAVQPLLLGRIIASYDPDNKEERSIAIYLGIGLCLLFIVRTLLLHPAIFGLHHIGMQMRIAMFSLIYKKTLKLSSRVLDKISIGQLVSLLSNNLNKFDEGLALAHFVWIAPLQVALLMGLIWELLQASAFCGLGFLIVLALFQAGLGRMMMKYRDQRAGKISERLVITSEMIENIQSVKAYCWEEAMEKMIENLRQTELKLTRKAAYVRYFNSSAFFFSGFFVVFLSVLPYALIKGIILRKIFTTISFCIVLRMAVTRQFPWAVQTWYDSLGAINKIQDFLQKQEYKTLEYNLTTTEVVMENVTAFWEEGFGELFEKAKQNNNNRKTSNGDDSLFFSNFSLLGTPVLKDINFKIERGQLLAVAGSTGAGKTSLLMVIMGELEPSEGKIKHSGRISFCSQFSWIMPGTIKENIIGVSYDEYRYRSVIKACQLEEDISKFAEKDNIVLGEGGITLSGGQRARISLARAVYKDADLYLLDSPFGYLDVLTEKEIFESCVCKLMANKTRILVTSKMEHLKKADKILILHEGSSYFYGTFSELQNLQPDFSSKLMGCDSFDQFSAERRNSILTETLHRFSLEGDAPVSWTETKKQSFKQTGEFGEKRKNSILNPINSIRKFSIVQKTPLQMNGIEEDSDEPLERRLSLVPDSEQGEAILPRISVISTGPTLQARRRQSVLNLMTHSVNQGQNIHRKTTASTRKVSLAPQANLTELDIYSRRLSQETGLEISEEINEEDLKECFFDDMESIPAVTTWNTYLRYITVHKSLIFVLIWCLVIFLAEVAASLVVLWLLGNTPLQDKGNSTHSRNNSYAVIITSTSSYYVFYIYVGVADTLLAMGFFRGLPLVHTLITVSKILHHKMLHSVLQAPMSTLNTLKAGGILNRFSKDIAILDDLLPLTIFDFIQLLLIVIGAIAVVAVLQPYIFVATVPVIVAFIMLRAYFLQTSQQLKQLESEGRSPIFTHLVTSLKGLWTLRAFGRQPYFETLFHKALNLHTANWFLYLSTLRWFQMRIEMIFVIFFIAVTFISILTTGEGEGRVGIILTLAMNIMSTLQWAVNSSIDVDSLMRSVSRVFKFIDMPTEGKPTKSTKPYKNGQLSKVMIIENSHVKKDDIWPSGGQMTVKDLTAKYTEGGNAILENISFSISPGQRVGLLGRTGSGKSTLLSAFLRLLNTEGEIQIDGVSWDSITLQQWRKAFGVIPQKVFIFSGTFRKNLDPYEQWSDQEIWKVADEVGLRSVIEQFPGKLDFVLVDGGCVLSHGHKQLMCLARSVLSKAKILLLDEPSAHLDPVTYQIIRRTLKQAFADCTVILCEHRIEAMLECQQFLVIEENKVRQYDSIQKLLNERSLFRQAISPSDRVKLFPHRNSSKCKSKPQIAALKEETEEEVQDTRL

Row | SMILES | Emax | EC50
1 | CCN(C(=O)c1nn(-c2ccc(C)cc2)c(=O)c2c1c1sc(C)cc1n2C)c1ccccc1F [Example 247, N-ethyl-N-(2-fluorophenyl)-2,4-dimethyl-5-oxo-6-(p-tolyl)-5,6-dihydro-4H-thieno[2′,3′:4,5]pyrrolo[2,3-d]pyridazine-8-carboxamide] | 30 to 80% | > 20 µM
2 | Cc1ccc(-n2nc(C(=O)N(c3ccccc3)C(C)C)c3c(-c4ccccc4)onc3c2=O)cc1 [Example 248, N-isopropyl-7-oxo-N,3-diphenyl-6-(p-tolyl)-6,7-dihydroisoxazolo[3,4-d]pyridazine-4-carboxamide] | 10 to 30% | < 10 µM
3 | COc1ccc2c(-c3cccc(Cl)c3)nn(CC(=O)C3(c4ccc5c(c4)OC(F)(F)O5)CC3)c(=O)c2c1 [Example 249, 4-(3-chlorophenyl)-2-(2-(1-(2,2-difluorobenzo[d][1,3]dioxol-5-yl)cyclopropyl)-2-oxoethyl)-7-methoxyphthalazin-1(2H)-one] | > 80% | < 10 µM
4 | COc1ccc2c(-c3cccc(F)c3)nn(CC(=O)C3(c4ccc5c(c4)OC(F)(F)O5)CC3)c(=O)c2c1 [Example 250, 2-(2-(1-(2,2-difluorobenzo[d][1,3]dioxol-5-yl)cyclopropyl)-2-oxoethyl)-4-(3-fluorophenyl)-7-methoxyphthalazin-1(2H)-one] | 30 to 80% | < 10 µM

The next lines start with the values.

Row | Emax | EC50 | SMILES
5 | 30 to 80% | < 10 µM | COc1ccc(C2(C(=O)Cn3nc(-c4cccc(Cl)c4)c4ccc(OC)cc4c3=O)CC2)cc1 [Example 251, 4-(3-chlorophenyl)-7-methoxy-2-(2-(1-(4-methoxyphenyl)cyclopropyl)-2-oxoethyl)phthalazin-1(2H)-one]
6 | > 80% | < 10 µM | COc1ccc2c(-c3cccc(C#N)c3)nn(CC(=O)C3(c4ccc5c(c4)OC(F)(F)O5)CC3)c(=O)c2c1 [Example 252, 3-(3-(2-(1-(2,2-difluorobenzo[d][1,3]dioxol-5-yl)cyclopropyl)-2-oxoethyl)-6-methoxy-4-oxo-3,4-dihydrophthalazin-1-yl)benzonitrile]
7 | > 80% | < 10 µM | COc1ccc2c(c1)c1c(=O)n(CC(=O)N(C)c3ccc4nc(C)oc4c3)ncc1n2Cc1ccc(C#N)cc1 [Example 259, 2-(5-(4-cyanobenzyl)-8-methoxy-1-oxo-1,5-dihydro-2H-pyridazino[4,5-b]indol-2-yl)-N-methyl-N-(2-methylbenzo[d]oxazol-6-yl)acetamide]
8 | > 80% | < 10 µM | COc1ccc2c(c1)c1c(=O)n(CC(=O)N(C)c3ccc4nc(C)oc4c3)ncc1n2Cc1ccc(F)cc1 [Example 260, 2-(5-(4-fluorobenzyl)-8-methoxy-1-oxo-1,5-dihydro-2H-pyridazino[4,5-b]indol-2-yl)-N-methyl-N-(2-methylbenzo[d]oxazol-6-yl)acetamide]
